The record followed here is patent publication US8410109B2, “Pharmaceutical compositions for the prevention and treatment of complex diseases and their delivery by insertable medical devices” (Resverlogix Corp., priority 2005, dated 2013).

The structures appear in SMILES notation. Where a name gives a salt, the structure may show the parent alone. Where only a bound is given, the exact number is not on record here.

One data set concerns MCP-1. Briefly: MCP-1 ELISA on culture media of TNF-α stimulated HUVECs. Type of data set: cell-based. The settings on record: Homo sapiens, HUVEC, approx. 16 hours. The procedure: (§1) Compounds were dissolved in DMSO, aliquoted, and stored at −20° C. Cultured human vascular endothelial cells (HUVECs) were seeded in 96-well plates in complete EGM-2 media (˜100 μL/well); cells were plated at ˜2-3×10^5/mL, and were from passage 8 to 12. Cells were incubated overnight. On the following day cells are stimulated with TNF-α (˜1 ng/mL) in the presence or absence of compounds dissolved in DMSO. Triplicate wells were used for each test. To establish a dose curve and an IC50, multiple concentrations in 2- to 5-fold increments were used. Cells were exposed to TNF-α and compounds for approximately 16 hours. The next day, cells were visually examined via light microscopy to score for visual signs of toxicity. Cell culture media was analyzed using an MCP-1 ELISA. Cells were refed (−100 μL/well) with 20% CellTiter 96. Aqueous One Cell Proliferation Solution (Promega), 80% EGM-2 medium. Media optical density (at 490 nm) was determined after 1 hour. Plates were aspirated and cell lysates were prepared and these lysates were tested using a VCAM-1 ELISA.
(§2) In Table 2, a positive result (+) was defined as at least 50% inhibition of the protein levels MCP-1 or VCAM-1, as determined by the ELISA.

Data set [1] relates to Human coronary artery smooth muscle cells (CASMCs). Briefly: Smooth muscle cell proliferation protocol. Format: cell-based. The settings on record: 72 hours, read-out: % Inhibition of SMC Proliferation. On the procedure: Compounds were dissolved in DMSO, aliquoted, and stored at −20° C. Human coronary artery smooth muscle cells (CASMCs) were plated in 96-well plates and were grown in SmBM-2 media. After 1-2 hours, media was aspirated and replaced with serum-free ME/F12 media, except the controls. Cells were incubated for a further 48 hours. Compounds were diluted in DME/F12 containing 10% FBS. Media was aspirated from the plates and compounds in DME/F12 containing 10% FBS. Six wells were used per condition and duplicate plates were used. Cells were incubated for a further 72 hours. Media was aspirated from one set of plates; those cells were refed (˜100 μL/well) with 20% CellTiter 96 Aqueous One Cell Proliferation Solution (Promega), 80% EGM-2 medium. Media optical density (at 490 nm) was determined after 3-4 hours. In the second set of plates, serum-free DME/F12 media (20 μL) was added to each well. Part of the supernatant (50 μL) was removed and placed in an ELISA plate and was stored temporarily at 4° C. The remaining media and cells in the second set of plates were freeze-thawed for four cycles. The lysates and supernatants were mixed and centrifuged. Part of the supernatant (50 μL) was removed and placed in an ELISA plate. The Promega Cytotox assay was performed on the ELISA plates. The ratio of supernatant OD to supernatant+cell lysate OD was determined.
In Table 2, a positive result (+) was defined as at least 40% inhibition of the proliferation of SMC, as determined by the assay.

A further data set relates to VCAM-1. As to the kind of experiment: VCAM-1 ELISA on lysates of TNF-α stimulated HUVECs. Format: cell-based. The settings on record: Homo sapiens, HUVEC, approx. 16 hours. On the procedure: as §1, §2

In the case of `CN(C)Cc1ccc2c(=O)cc(-c3ccc(O)cc3)oc2n1` (as salt: hydrochloride) [EXAMPLE 26, 7-((dimethylamino)methyl-2-(4-hydroxyphenyl)-4H-pyrano[2,3-b]pyridin-4-one dihydrochloride], the melting point is 205 °C.

As to `CN(C)CCOc1ccc(-c2cc(=O)c3cccnc3o2)cc1` (as salt: hydrochloride) [EXAMPLE 27, 2-(4-(2-(dimethylamino)ethoxy)phenyl)-4H-pyrano[2,3-b]pyridin-4-one dihydrochloride], the melting point lay in the range of 236 to 238 °C.

Take `O=c1cc(-c2ccncc2)oc2ncccc12` (as salt: hydrochloride) [EXAMPLE 30, 2-(pyridin-4-yl)-4H-pyrano[2,3-b]pyridin-4-one hydrochloride]: the melting point lay within 248 to 250 °C.

In turn, `Cc1cc(-c2cc(=O)c3cccnc3o2)cc(C)c1OCCN1CCOCC1` (as salt: hydrochloride) [EXAMPLE 31, 2-(3,5-dimethyl-4-(2-morpholinoethoxy)phenyl)-4H-pyrano[2,3-b]pyridin-4-one hydrochloride] had a melting point of 276 to 278 °C.

`Cc1cc(-c2cc(=O)c3cc(CN4CCCC4)cnc3o2)cc(C)c1O` (as salt: hydrochloride) [EXAMPLE 33, 2-(4-hydroxy-3,5-dimethylphenyl)-6-(pyrrolidin-1-ylmethyl)-4H-pyrano[2,3-b]pyridin-4-one dihydrochloride] showed a melting point of 337 to 338 °C.

Turning to `COc1cc(OC)c2c(=O)cc(-c3ccncc3)oc2c1` (as salt: hydrochloride) [EXAMPLE 34, 5,7-dimethoxy-2-(pyridin-4-yl)-4H-chromen-4-one hydrochloride], the melting point lay within 234 to 235 °C.

Take `O=c1cc(-c2ccccc2)oc2ncc(CN3CCCC3)cc12` (as salt: hydrochloride) [EXAMPLE 35, 2-phenyl-6-(pyrrolidin-1-ylmethyl)-4H-pyrano[2,3-b]pyridin-4-one hydrochloride]: the melting point was 294 to 296 °C.

Compound `O=c1cc(-c2ccc(F)cc2)oc2ncc(CN3CCCC3)cc12` (as salt: hydrochloride) [EXAMPLE 37, 2-(4-fluorophenyl)-6-(pyrrolidin-1-ylmethyl)-4H-pyrano[2,3-b]pyridin-4-one hydrochloride] came in with a melting point of 265 to 268 °C.

`Nc1ccc(-c2cc(=O)c3cccnc3o2)cc1` (as salt: hydrochloride) [EXAMPLE 38, 2-(4-aminophenyl)-4H-pyrano[2,3-b]pyridin-4-one hydrochloride]: the melting point lay within 254 to 255 °C.

In turn, `Cc1cc(-c2cc3ncccc3c(=O)[nH]2)cc(C)c1O` (as salt: hydrochloride) [EXAMPLE 40, 7-(4-hydroxy-3,5-dimethylphenyl)-1,6-naphthyridin-5(6H)-one hydrochloride] displayed a melting point above 350 °C.

`COc1cc(O)nc2cc(-c3cc(C)c(O)c(C)c3)[nH]c(=O)c12` (as salt: hydrochloride) [EXAMPLE 41, 2-hydroxy-7-(4-hydroxy-3,5-dimethylphenyl)-4-methoxy-1,6-naphthyridin-5(6H)-one dihydrochloride] yielded a melting point above 330 °C.

`CNc1nc(-c2cc(C)c(O)c(C)c2)cc2ccc(CN3CCN(C)CC3)cc12` (as salt: hydrochloride) [EXAMPLE 43, 2,6-dimethyl-4-(1-(methylamino)-7-((4-methylpiperazin-1-yl)methyl)isoquinolin-3-yl)phenol trihydrochloride] had a melting point of 264 to 266 °C.

For the compound `O=c1cc(-c2ccc(O)cc2)oc2cnccc12` [EXAMPLE 3, 2-(4-Hydroxyphenyl)-pyrano[2,3-c]pyridin-one], the melting point lay within 294 to 296 °C. The same compound displayed an inhibition at 50 µM in the data set on MCP-1 below 50%. Also, the inhibition at 50 µM in data set [1] is at least 40%. The compound also showed an inhibition at 50 µM in the data set with VCAM-1 below 50%.

Compound `O=c1cc(-c2ccc(O)c(F)c2)oc2ncccc12` [EXAMPLE 4, 2-(3-Fluoro-4-hydroxyphenyl)pyrano[2,3-b]pyridine-4-one] showed a melting point of 267 to 268 °C. Further, the inhibition at 50 µM in the data set on MCP-1 was below 50%. Also, the inhibition at 50 µM in data set [1] is below 40%. In the data set with VCAM-1, this compound returned an inhibition at 50 µM of at least 50%.

In turn, `Cc1cc(-c2cc(=O)c3cccnc3o2)ccc1O` [EXAMPLE 5, 2-(4-Hydroxy-3-methylphenyl)-4H-pyrano[2,3-b]pyridine-4-one] came in with a melting point of 300 to 302 °C. In the data set on MCP-1 (10 uM), the inhibition at 10 µM was below 50%. Further, in data set [1] (10 uM), the inhibition at 10 µM is below 40%. The inhibition at 10 µM in the data set with VCAM-1 (10 uM) is below 50%.

In turn, `O=c1cc(-c2ccc(O)cc2)oc2ccncc12` [EXAMPLE 6, 2-(4-Hydroxyphenyl)-4H-pyrano[3,2-c]pyridin-4-one] had a melting point of 306 to 308 °C. This compound registered an inhibition at 50 µM with MCP-1 below 50%. Further, the inhibition at 50 µM in data set [1] is at least 40%. The same compound displayed an inhibition at 50 µM in the data set on VCAM-1 of at least 50%.

Consider `O=c1cc(-c2ccc(O)c(Cl)c2)oc2ncccc12` [EXAMPLE 7, 2-(3-Chloro-4-hydroxyphenyl)-4H-pyrano[2,3-b]pyridine-4-one], for which the melting point lay within 259 to 262 °C. Also, in the data set on MCP-1, the inhibition at 50 µM is at least 50%. The inhibition at 50 µM in data set [1] is at least 40%. The compound also had an inhibition at 50 µM in the data set with VCAM-1 of at least 50%.

Compound `COc1cc(-c2cc(=O)c3cccnc3o2)ccc1O` [EXAMPLE 8, 2-(4-Hydroxy-3-methoxyphenyl)-4H-pyrano[2,3-b]pyridine-4-one] yielded a melting point of 253 to 255 °C. In the data set on MCP-1, this compound had an inhibition at 50 µM below 50%. In addition, in data set [1], the inhibition at 50 µM was below 40%. In the data set with VCAM-1, this compound registered an inhibition at 50 µM of at least 50%.

In turn, `COc1ccc(-c2cc(=O)c3cccnc3o2)cc1` [EXAMPLE 9, 2-(4-Methoxyphenyl)-4H-pyrano[2,3-b]pyridine-4-one] registered a melting point of 269 to 270 °C. Besides, the inhibition at 50 µM in the data set with MCP-1 was below 50%. Further, the inhibition at 50 µM in data set [1] was at least 40%. The inhibition at 50 µM with VCAM-1 is below 50%.

`O=c1cc(-c2ccc(OCCO)cc2)oc2ncccc12` [EXAMPLE 10, 2-(4-(2-Hydroxyethoxy)phenyl)-4H-pyrano[2,3-b]pyridine-4-one]: the melting point lay in the range of 157 to 159 °C. This compound yielded an inhibition at 50 µM with MCP-1 below 50%. Moreover, the inhibition at 50 µM in data set [1] was at least 40%. Also, the inhibition at 50 µM with VCAM-1 is below 50%.

Compound `O=c1cc(-c2ccc(O)nc2)oc2ccccc12` [EXAMPLE 13, 2-(6-Hydroxypyridin-3-yl)-chromen-4-one] gave a melting point of 296 to 297 °C. The inhibition at 50 µM in the data set on MCP-1 was below 50%. For the same compound, the inhibition at 50 µM in data set [1] was at least 40%. The compound further registered an inhibition at 50 µM in the data set on VCAM-1 of at least 50%.

`Oc1ccc(-c2cc3ccccc3cn2)cc1` [EXAMPLE 15, 4-Isoquinolin-3-yl-phenol] registered a melting point of 218 to 219 °C. Besides, the inhibition at 50 µM in the data set with MCP-1 is below 50%. For the same compound, the inhibition at 50 µM in data set [1] is below 40%. Also, the inhibition at 50 µM with VCAM-1 was at least 50%.

For `Cn1c(-c2ccc(O)c(F)c2)cc2ncccc2c1=O` [EXAMPLE 16, 7-(3-Fluoro-4-hydroxyphenyl)-6-methyl-1,6-naphthyridin-5(6H)-one], the melting point lay in the range of 182 to 184 °C. For the same compound, the inhibition at 50 µM in the data set with MCP-1 is below 50%. For the same compound, the inhibition at 50 µM in data set [1] was below 40%. For the same compound, in the data set on VCAM-1, the inhibition at 50 µM is below 50%.

The compound `CNc1nc(-c2ccc(O)c(F)c2)cc2c(OC)cccc12` [EXAMPLE 17, 2-Fluoro-4-(5-methoxy-1-(methylamino)isoquinolin-3-yl)phenol] registered a melting point of 185 to 187 °C. In addition, the inhibition at 50 µM in the data set on MCP-1 is at least 50%. For the same compound, in data set [1], the inhibition at 50 µM is below 40%. The compound further came in with an inhibition at 50 µM in the data set on VCAM-1 of at least 50%.

With `CN(C)Cc1ccc2oc(-c3ccncc3)cc(=O)c2c1` [EXAMPLE 50, 6-((dimethylamino)methyl)-2-(pyridinyl)-4H-chromen-4-one], the inhibition at 50 µM in the data set on MCP-1 was below 50%; in data set [1], at least 40%; in the data set with VCAM-1, below 50%.

On to `O=c1cc(-c2ccncc2)oc2cccc(CO)c12` [EXAMPLE 51, 5-(hydroxymethyl)-2-(pyridin-4-yl)-4H-chromen-4-one], for which the inhibition at 50 µM with MCP-1 was below 50%; in data set [1], below 40%; in the data set with VCAM-1, below 50%.
